Assays:
[1] = system: diet-induced obesity (DIO) mice; test: TZD-associated side effects in DIO mice (PCV, heart weight, cardiac and bone genes); type: in vivo, mouse
Protocol: C57BL/6J male mice were obtained from Jackson laboratory (Bar Harbor, ME) and maintained on a 12 h light (6:00 AM to 6:00 PM)—12 h dark (6:00 PM to 6:00 AM) cycle at an ambient temperature of 22±1° C. All animals had access to diet and water ad libitum. All procedures involving animals were approved by the Institutional Animal Care and Use Committee of the University of Oklahoma Health Science Center. All experiments were performed with age-matched male mice. The mice were fed a high-fat diet (HFD) (60% kcal fat, Bio-Serv, NJ, USA) starting from the age of 6 weeks until study end. […] Food intake was determined manually by measuring the amount of input food subtracting the amount of the food remaining in the food hopper and the crumbs on the bedding of the cage each day for three days during the 4th week of the treatment. Packed cell volume (PCV) was measured with blood drawn from tail on a LW Scientific E8 centrifuge (LW Scientific, Lawrenceville, Georgia, USA) microhematocrit centrifuge at the end of study. For all other measurements, the blood was drawn at the time of euthanization.
(§1) Total RNA (2 μg) was isolated from tissues or cells using TRIzol reagents (Life Technologies) and reverse transcribed using oligo d(T) primers (New England Biosystems) and SuperScript IV reverse transcription kit (Applied Biosystems). qPCR was performed in a CFX96 Touch Real-Time PCR detection system using SYBR Green mix (Applied Biosystems). The amplification program was as follows: initial denaturation at 95° C. for 15 min, followed by 40 cycles of 95° C. for 15 s, 60° C. for 1 min, and 40° C. for 30 s. Relative mRNA expression was determined by the ΔΔCt method normalized to TBP mRNA.

[2] = molecular target: T1, human PPARγ2 (Homo sapiens, UniProt P37231); test: PPARγ transactivation reporter assay (3×PPRE-luc) in HEK-293 cells; type: cell-based; conditions: HEK293, PPARγ2 + 3×PPRE-luc, relative to Rosi
T1 construct: host or cells: HEK-293
T1 sequence (P37231 1-505): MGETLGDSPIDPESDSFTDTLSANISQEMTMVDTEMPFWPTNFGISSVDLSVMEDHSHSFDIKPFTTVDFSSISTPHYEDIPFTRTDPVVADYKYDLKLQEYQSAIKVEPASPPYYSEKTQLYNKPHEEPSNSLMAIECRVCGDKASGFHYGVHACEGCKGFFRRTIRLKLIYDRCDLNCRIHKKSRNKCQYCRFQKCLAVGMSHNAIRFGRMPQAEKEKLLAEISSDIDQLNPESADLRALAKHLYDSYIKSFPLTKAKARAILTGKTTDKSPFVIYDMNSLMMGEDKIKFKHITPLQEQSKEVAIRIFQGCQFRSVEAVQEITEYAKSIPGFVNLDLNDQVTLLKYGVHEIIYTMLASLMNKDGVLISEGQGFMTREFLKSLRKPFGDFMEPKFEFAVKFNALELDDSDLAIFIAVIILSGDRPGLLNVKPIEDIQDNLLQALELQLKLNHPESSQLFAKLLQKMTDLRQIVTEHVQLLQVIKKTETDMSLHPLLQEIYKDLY
Protocol: HEK-293 cells were seeded overnight, co-transfected with plasmids expressing human PPARγ2 and 3×PPRE-luc (both from Addgene) followed by incubation for 16 h, and then re-seeded in a 384-well plate and incubated for 24 h. Compounds were added and then incubated another 24 h. Luciferase activity was analyzed in each well using Bright-Glo Luciferase kit (Promega).

[3] = molecular target: T2, PPARγ (Homo sapiens, UniProt P37231); conditions: cited from earlier work
T2 sequence (P37231 1-505): T1 sequence (P37231 1-505)

[4] = system: PPARγ S273 phosphorylation; test: PPARγ S273 phosphorylation and phosphorylation-dependent genes in 3T3-L1 differentiated adipocytes; type: cell-based, mouse; conditions: 3T3-L1 differentiated adipocytes, TNFα 10 ng/ml 1 h, compounds at 10 μM, Western blot
Protocol: as §1

| Structure (SMILES) | mRNA levels of bone formation genes (Bglap, SPP1, ColA1) ([1]; 4-week treatment) | heart weight ([1]; relative to vehicle) | mRNA levels of Myh7 and Nppb in heart ([1]; vs vehicle) | 3×PPRE-luc reporter activity as % of potency of Rosi [2] | PPARγ binding affinity (literature) [3] | PPARγ phosphorylation at S273 (literature) [3] | S273 phosphorylation of PPARγ [4] |
| --- | --- | --- | --- | --- | --- | --- | --- |
| CN(CCOc1ccc(CC2SC(=O)NC2=O)cc1)c1ccccn1 (stereo not shown) [Rosi, rosiglitazone, reference compound] | decreased their expression significantly | significant increase | increased | – | – | – | – |
| Cc1c(C)n(Cc2ccc(-c3ccccc3C(=O)O)cc2)c2ccc(C(=O)NCc3cccnc3)cc12 [UHC1, 4′ -((2,3-Dimethyl-5-(pyridine-3-ylmethylcarboamyl)-1H-indol-1-yl)methyl)biphenyl-2-carboxylic acid, reference compound] | – | – | – | approximately 45% | poor | inhibit | significantly inhibited |
